pEC50: −log10 of the molar value.
What was measured:
primary microglia = assay: RT-PCR for CXCL10 and IFNβ transcripts in primary microglia (wildtype, tk KO, STING^gt/gt); format: cell-based, mouse; conditions: 200 μM, 6 hours
Protocol: Mice were housed and bred according to the Institutional Animal Care and Use Committee guidelines. Primary microglia and astrocytes were isolated from P0-P3 C57BL/6 mouse pups. Cortices from pups were isolated, meninges removed and tissue was dissociated using a 25-gauge needle. Two cortices were plated on each poly-L-lysine coated T-75 flasks in DMEM/F12+10% FBS+1% penicillin/streptomycin. Microglia and astrocyte co-cultures were maintained for 3 weeks, after which microglia were isolated using CD11b magnetic beads (Miltenyi Biotec) according to the manufacturer's instructions. Isolated microglia were allowed to recover for 1-2 days and processed for cellular assays described above.
For tk KO experiments only, microglia were isolated from adult mouse brains using the neural dissociation kit (Miltenyi Biotec) according to manufacturer's protocol followed by CD11b magnetic bead enrichment. Isolated cells were cultured for 3-4 days before the experiment.
(§1) RNA was isolated from cells using RNeasy mini kit from Qiagen. DNased RNA was converted to cDNA using SuperScript III reverse transcriptase kit (Life technologies). The cDNA was used to quantify specific targets using SYBR green in Roche Lightcycler 480. ΔΔCt values normalized against the experimental control to determine fold change in mRNA for each sample compared to untreated or vehicle treated control. β-actin or Ubc or both were used as housekeeping genes. Primer sequences were obtained from PrimerBank. Fold change is shown compared to the vehicle treated or untreated cells, unless otherwise noted.

[1] = test system: wildtype and STING^gt/gt mice with EAE; conditions: mouse model for multiple sclerosis, therapeutic doses equivalent to those in humans (Ding et al. 2014); cited from earlier work
[2] = test system: THP-1 human monocyte cells; assay: RT-PCR for CXCL10 in THP-1 cells; format: cell-based; conditions: 200 μM, 8-24 hours
Protocol: BV-2 mouse microglia cells were grown in DMEM+10% FBS and THP-1 human monocyte cells were grown in RPMI-40+10% FBS+0.05 mM β-mercaptoethanol at 37° C., 5% CO2. Adherent cells were split using 1×TrypLE (Gibco). For cellular assays, cells were treated with the following concentrations of drugs as indicated in the DMEM without serum: 100-200 μM ganciclovir, 10 ng/ml IFNγ (R&D systems), 100 ng/ml LPS (Sigma-Aldrich), 1-10 μM Fludarabine (Selleckchem), 1 μM Ruxolitinib (Selleckchem), 1 μM TG-101348 (Selleckchem), 1 μM Amlexanox (Tocris bioscience) unless otherwise noted. All experiments were run in triplicates and replicated at least 3 times with cell lines and at least twice with primary microglia. Average data are shown for cell lines and representative data are shown for primary cells. Secreted signaling proteins were measured in supernatants from cultured cells stimulated with GCV and conditioned for 24 hours in the absence of serum using two independent Luminex arrays (Human Immune Monitoring Center, Stanford and Eve technologies, Canada). Nitrite assay was performed on conditioned culture supernatants of cells stimulated with drugs for 24 hours using the Griess Reagent System (Promega) according to manufacturer's instructions. To assess cellular viability, cell confluence was measured using an automated microscope (Cellavista; Roche). […]

BV-2 microglia [3] = assay: Cell viability (cell confluence, automated microscope); format: cell-based, mouse; conditions: GCV dose response
Protocol: (§2) BV-2 mouse microglia cells were grown in DMEM+10% FBS and THP-1 human monocyte cells were grown in RPMI-40+10% FBS+0.05 mM β-mercaptoethanol at 37° C., 5% CO2. Adherent cells were split using 1×TrypLE (Gibco). For cellular assays, cells were treated with the following concentrations of drugs as indicated in the DMEM without serum: 100-200 μM ganciclovir, 10 ng/ml IFNγ (R&D systems), 100 ng/ml LPS (Sigma-Aldrich), 1-10 μM Fludarabine (Selleckchem), 1 μM Ruxolitinib (Selleckchem), 1 μM TG-101348 (Selleckchem), 1 μM Amlexanox (Tocris bioscience) unless otherwise noted. All experiments were run in triplicates and replicated at least 3 times with cell lines and at least twice with primary microglia. Average data are shown for cell lines and representative data are shown for primary cells. Secreted signaling proteins were measured in supernatants from cultured cells stimulated with GCV and conditioned for 24 hours in the absence of serum using two independent Luminex arrays (Human Immune Monitoring Center, Stanford and Eve technologies, Canada). Nitrite assay was performed on conditioned culture supernatants of cells stimulated with drugs for 24 hours using the Griess Reagent System (Promega) according to manufacturer's instructions. To assess cellular viability, cell confluence was measured using an automated microscope (Cellavista; Roche).

BV-2 microglia [4] = assay: siRNA knockdown (STING, IRF3, Stat1, Jak2), then RT-PCR for CXCL10; format: cell-based, mouse
Protocol: Smartpool siRNAs against mouse targets were bought from Dharmacon and transfected in microglia cells using Viromer Blue from Lipocalyx at a concentration of 50 nM according to manufacturer's instructions. Drugs were added cells after 24 hours of transfection and assays done 24 hours after addition of drugs.
as §1

[5] = test system: IFNγ/LPS stimulated BV-2 microglia; assay: Nitrite assay (Griess) on culture supernatants; format: cell-based, mouse; conditions: 24 hours
Protocol: as §2

BV-2 cells = assay: RT-PCR for CXCL10 and IFNβ transcripts in BV-2 cells; format: cell-based, mouse
Protocol: as §2, §1

[6] = test system: BV-2 and primary microglia stimulated with IFNγ and LPS; assay: RT-PCR of inflammatory transcripts in IFNγ/LPS stimulated microglia; format: cell-based, mouse; conditions: 200 μM GCV, 24 hours
Protocol: BV-2 mouse microglia cells were grown in DMEM+10% FBS and THP-1 human monocyte cells were grown in RPMI-40+10% FBS+0.05 mM β-mercaptoethanol at 37° C., 5% CO2. Adherent cells were split using 1×TrypLE (Gibco). For cellular assays, cells were treated with the following concentrations of drugs as indicated in the DMEM without serum: 100-200 μM ganciclovir, 10 ng/ml IFNγ (R&D systems), 100 ng/ml LPS (Sigma-Aldrich), 1-10 μM Fludarabine (Selleckchem), 1 μM Ruxolitinib (Selleckchem), 1 μM TG-101348 (Selleckchem), 1 μM Amlexanox (Tocris bioscience) unless otherwise noted. All experiments were run in triplicates and replicated at least 3 times with cell lines and at least twice with primary microglia. Average data are shown for cell lines and representative data are shown for primary cells. Secreted signaling proteins were measured in supernatants from cultured cells stimulated with GCV and conditioned for 24 hours in the absence of serum using two independent Luminex arrays (Human Immune Monitoring Center, Stanford and Eve technologies, Canada). Nitrite assay was performed on conditioned culture supernatants of cells stimulated with drugs for 24 hours using the Griess Reagent System (Promega) according to manufacturer's instructions. To assess cellular viability, cell confluence was measured using an automated microscope (Cellavista; Roche). Mice were housed and bred according to the Institutional Animal Care and Use Committee guidelines. Primary microglia and astrocytes were isolated from P0-P3 C57BL/6 mouse pups. Cortices from pups were isolated, meninges removed and tissue was dissociated using a 25-gauge needle. Two cortices were plated on each poly-L-lysine coated T-75 flasks in DMEM/F12+10% FBS+1% penicillin/streptomycin. Microglia and astrocyte co-cultures were maintained for 3 weeks, after which microglia were isolated using CD11b magnetic beads (Miltenyi Biotec) according to the manufacturer's instructions. Isolated microglia were allowed to recover for 1-2 days and processed for cellular assays described above. RNA was isolated from cells using RNeasy mini kit from Qiagen. […] was converted to cDNA using SuperScript III reverse transcriptase kit (Life technologies). The cDNA was used to quantify specific targets using SYBR green in Roche Lightcycler 480. ΔΔCt values normalized against the experimental control to determine fold change in mRNA for each sample compared to untreated or vehicle treated control. β-actin or Ubc or both were used as housekeeping genes. Primer sequences were obtained from PrimerBank. Fold change is shown compared to the vehicle treated or untreated cells, unless otherwise noted.

[7] = adult tk1 knockout primary microglia
[8] = primary microglia lacking functional STING
[9] = BV-2 microglia, siRNA 24 hours, then 200 μM for 24 hours
[10] = BV-2 and primary microglia stimulated with IFNγ and LPS
[11] = IFNγ/LPS-stimulated STING^gt/gt primary microglia

Nc1nc(O)c2ncn(COC(CO)CO)c2n1 [GCV, Ganciclovir]
CXCL10 mRNA in microglia from tk1 knockout mice (primary microglia; [7]): at levels seen in treated wild type microglia
IFNβ mRNA in microglia from tk1 knockout mice (primary microglia; [7]): at levels seen in treated wild type microglia
induction of CXCL10 mRNA in STING^gt/gt primary microglia (primary microglia; [8]): failed to induce
induction of IFNβ mRNA in STING^gt/gt primary microglia (primary microglia; [8]): failed to induce
disease course and pathology of EAE [1]: ameliorates the disease course and pathology
induction of CXCL10 mRNA in human monocyte cell line [2]: induced
toxicity (cell viability) (BV-2 microglia [3]): without causing any toxicity
CXCL10 or IFNβ mRNA expression after siRNA knockdown of Stat1 and Jak2 or lack of Stat1 (BV-2 microglia [4]; BV-2 cells (siRNA) or Stat1 knockout primary microglia, 200 μM): significantly reduced
capacity to induce CXCL10 after siRNA knock down of STING (BV-2 microglia [4]; [9]): to a lesser extent
potential to induce CXCL10 mRNA after siRNA knockdown of IRF3 (BV-2 microglia [4]; [9]): inhibited
microglial nitric oxide production (nitrite assay) [5]: reduction
induction of CXCL10 mRNA on neutralization of IFNβ with an antibody (BV-2 cells; BV-2 cells, 200 μM with anti-IFNβ antibody, 4 hours): partly reduced
pEC50 (BV-2 cells; Mus musculus, BV-2 microglia, dose response, read-out: EC50, increase of CXCL10 transcript): ~3.80
induction of IFNβ transcript (BV-2 cells; microglia (BV-2, primary), 200 μM): induced
CCL2 transcript [6, 10]: almost complete transcriptional inhibition
iNOS transcript [6, 10]: almost complete transcriptional inhibition
iNOS and CCL2 transcripts in GCV treated STING^gt/gt microglia [6, 11]: higher
reduction of inflammatory markers in STING^gt/gt primary microglia [6, 11]: unable to do so
inflammatory markers in wildtype primary microglia ([6]; IFNγ/LPS-stimulated wildtype primary microglia): reduced
